Measurements taken from patent US20040265803A1, “Genes and their genetic products pertinent to microsatellite instable (msi+) tumours” (priority 2000, published 2004).

System: CD8+ T cells
Assay: IFN-gamma ELISpot analysis of T cells stimulated with neopeptide-loaded autologous CD40-activated B cells
Format: cell-based, human
Conditions: T cells from HLA-A0201-positive healthy proband, weekly stimulation

Row | Sequence | reactivity (IFN-gamma ELISpot) (day 35) | reactivity (IFN-gamma ELISpot) (day 28)
1 | FLSASHFLL [peptide #15, HLA-A0201-restricted neopeptide encoded by mutated cMNR] | 1123 specific cells/1,000,000 cells | 
2 | TLSPGWSAV [peptide #21, HLA-A0201-restricted neopeptide encoded by mutated cMNR] | 733 specific cells/1,000,000 cells | 
3 | SLYKFSPFPL [peptide #16, HLA-A0201-restricted neopeptide encoded by mutated cMNR] |  | 1760 specific cells/1,000,000 cells
